Legend:
Carbonic anhydrase 1 = Carbonic anhydrase 1 (Homo sapiens, UniProt P00915); assay: Inhibition of human recombinant carbonic anhydrase 1 expressed in Escherichia coli assessed as reduction in CO2 hydration preincubated for 15 mins prior to testing measured for 10 to 100 secs by stopped-flow assay
Carbonic anhydrase 2 = Carbonic anhydrase 2 (Homo sapiens, UniProt P00918); assay: Inhibition of human recombinant carbonic anhydrase 2 expressed in Escherichia coli assessed as reduction in CO2 hydration preincubated for 15 mins prior to testing measured for 10 to 100 secs by stopped-flow assay
Carbonic anhydrase 4 = Carbonic anhydrase 4 (Homo sapiens, UniProt P22748); assay: Inhibition of human recombinant carbonic anhydrase 4 expressed in Escherichia coli assessed as reduction in CO2 hydration preincubated for 15 mins prior to testing measured for 10 to 100 secs by stopped-flow assay
Chain of Carbonic anhydrase 4 (P22748 whole entry): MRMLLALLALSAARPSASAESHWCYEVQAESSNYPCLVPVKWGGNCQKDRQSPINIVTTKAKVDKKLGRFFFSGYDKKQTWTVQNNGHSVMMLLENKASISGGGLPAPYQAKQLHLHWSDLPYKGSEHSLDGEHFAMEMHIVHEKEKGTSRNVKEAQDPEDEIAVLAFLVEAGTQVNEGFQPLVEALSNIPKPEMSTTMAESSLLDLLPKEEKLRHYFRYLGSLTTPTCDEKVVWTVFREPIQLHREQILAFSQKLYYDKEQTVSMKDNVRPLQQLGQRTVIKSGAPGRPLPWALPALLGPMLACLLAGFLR

Carbonic anhydrase 7 = Carbonic anhydrase 7 (Homo sapiens, UniProt P43166); assay: Inhibition of human recombinant carbonic anhydrase 7 expressed in Escherichia coli assessed as reduction in CO2 hydration preincubated for 15 mins prior to testing measured for 10 to 100 secs by stopped-flow assay
Chain of Carbonic anhydrase 7 (P43166 whole entry): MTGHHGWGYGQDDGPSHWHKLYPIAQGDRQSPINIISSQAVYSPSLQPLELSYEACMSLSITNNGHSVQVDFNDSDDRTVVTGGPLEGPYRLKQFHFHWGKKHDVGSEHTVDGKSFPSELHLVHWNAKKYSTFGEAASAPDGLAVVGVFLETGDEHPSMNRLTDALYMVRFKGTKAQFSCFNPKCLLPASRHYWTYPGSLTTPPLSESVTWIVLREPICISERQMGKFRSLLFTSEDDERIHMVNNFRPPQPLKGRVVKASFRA

Chain of Carbonic anhydrase 1 (P00915 whole entry): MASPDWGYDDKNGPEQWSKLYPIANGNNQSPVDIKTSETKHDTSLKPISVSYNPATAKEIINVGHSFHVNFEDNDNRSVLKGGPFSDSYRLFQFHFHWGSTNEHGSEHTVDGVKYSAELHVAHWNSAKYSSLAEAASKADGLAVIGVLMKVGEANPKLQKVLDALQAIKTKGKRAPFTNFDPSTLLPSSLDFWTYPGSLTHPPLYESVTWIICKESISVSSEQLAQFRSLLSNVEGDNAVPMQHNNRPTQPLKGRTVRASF

Row | SMILES | Ki (Carbonic anhydrase 1) [µM] | Ki (Carbonic anhydrase 2) [µM] | Ki (Carbonic anhydrase 4) [µM] | Ki (Carbonic anhydrase 7) [µM]
1 | N#CC1=C(N)OC2=C(C(=O)CCC2)C1c1cccc(-c2nnn[nH]2)c1 (stereo not given) | > 10 | > 10 | > 10 | > 10
2 | O=Cc1ccc(-c2nnn[nH]2)cc1 | > 10 | > 10 | > 10 | > 10
3 | O=Cc1cccc(-c2nnn[nH]2)c1 | > 10 | > 10 | > 10 | > 10
4 | CC1(C)CC(=O)C2=C(C1)OC(N)=C(C#N)C2c1cccc(-c2nnn[nH]2)c1 (stereo not given) | > 10 | > 10 | > 10 | > 10
5 | CC1(C)CC(=O)C2=C(C1)OC1=C(C(=O)CC(C)(C)C1)C2c1cccc(-c2nnn[nH]2)c1 | > 10 | > 10 | > 10 | > 10
6 | CC1(C)CC(=O)C2=C(C1)OC1=C(C(=O)CC(C)(C)C1)C2c1ccc(-c2nnn[nH]2)cc1 | > 10 | > 10 | > 10 | > 10

More lines, now with the values ahead:

Row | Ki (Carbonic anhydrase 1) [µM] | Ki (Carbonic anhydrase 2) [µM] | Ki (Carbonic anhydrase 4) [µM] | Ki (Carbonic anhydrase 7) [µM] | SMILES
7 | > 10 | > 10 | > 10 | > 10 | O=C1CCCC2=C1C(c1cccc(-c3nnn[nH]3)c1)C1=C(CCCC1=O)O2
8 | > 10 | > 10 | > 10 | > 10 | N#CC1=C(N)OC2=C(C(=O)CCC2)C1c1ccc(-c2nnn[nH]2)cc1 (stereo not given)
9 | > 10 | > 10 | > 10 | > 10 | CC1(C)CC(=O)C2=C(C1)OC(N)=C(C#N)C2c1ccc(-c2nnn[nH]2)cc1 (stereo not given)
10 | > 10 | > 10 | > 10 | > 10 | O=C1CCCC2=C1C(c1ccc(-c3nnn[nH]3)cc1)C1=C(CCCC1=O)O2

— ChEMBL document CHEMBL3870338, “Microwave assisted synthesis of novel tetrazole/sulfonamide derivatives based on octahydroacridine, xanthene and chromene skeletons as inhibitors of the carbonic anhydrases isoforms I, II, IV and VII” (Bioorg Med Chem Lett, 2017)
